US11420935B2, “Bicyclic compounds” (Vivace Therapeutics, Inc., priority 2019, dated 2022)
pIC50: −log10 of the molar value.

Each compound was assayed on 8×TBD luciferase reporter (YAP) in HEK293T cells (assay: YAP Reporter Assay (8×TBD firefly luciferase reporter)). Details: Homo sapiens, HEK-293T; HEK293T cells stably transfected with 8×TBD luciferase reporter and pRLTK; 24-hr incubation; firefly luciferase activity; read-out: Firefly Luciferase IC50.
Format: cell-based
Summary of the method: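 Stably transfected HEK293T cells (8×TBD firefly luciferase plus TK-renilla) were dosed with 10-point 1:3 dilutions from 3 μM final, quadruplicates, for 24 h at 37 °C. Dual-Glo read firefly and renilla luminescence; IC50 and maximal inhibition reported separately for each.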

Row | Compound | pIC50
1 | C[C@@H](NC(=O)c1ccc2c(Oc3ccc(C(F)(F)F)cc3)cccc2c1)C1CCN(CCO)CC1 [Compound 153, (R)-N-(1-(1-(2-hydroxyethyl)piperidin-4-yl)ethyl)-5-(4-(trifluoromethyl)phenoxy)-2-naphthamide] | 6.00 to 7.00
2 | C[C@@H](NC(=O)c1ccc2c(Oc3ccc(C(F)(F)F)cc3)cccc2c1)C1CCN(CCF)CC1 [Compound 154, (R)-N-(1-(1-(2-fluoroethyl)piperidin-4-yl)ethyl)-5-(4-(trifluoromethyl)phenoxy)-2-naphthamide] | 6.00 to 7.00
3 | CCN1CCC([C@@H](C)NC(=O)c2ccc3c(Oc4ccc(C(F)(F)F)cc4)cccc3c2)CC1 [Compound 155, (R)-N-(1-(1-ethylpiperidin-4-yl)ethyl)-5-(4-(trifluoromethyl)phenoxy)-2-naphthamide] | 6.00 to 7.00
4 | CC(C)N1CCC([C@@H](C)NC(=O)c2ccc3c(Oc4ccc(C(F)(F)F)cc4)cccc3c2)CC1 [Compound 156, (R)-N-(1-(1-isopropylpiperidin-4-yl)ethyl)-5-(4-(trifluoromethyl)phenoxy)-2-naphthamide] | 6.00 to 7.00
5 | C[C@@H](NC(=O)c1ccc2c(Oc3ccc(C(F)(F)F)cc3)cccc2c1)C1CCN(C)CC1 [Compound 157, (R)-N-(1-(1-methylpiperidin-4-yl)ethyl)-5-(4-(trifluoromethyl)phenoxy)-2-naphthamide] | > 7.00
6 | C[C@@H](NC(=O)c1ccc2c(Oc3ccc(C(F)(F)F)cc3)cccc2c1)C1CCN(CC(F)F)CC1 [Compound 162, (R)-N-(1-(1-(2,2-difluoroethyl)piperidin-4-yl)ethyl)-5-(4-(trifluoromethyl)phenoxy)-2-naphthamide] | 6.00 to 7.00
